Data as given in ChEMBL document CHEMBL1127436, “[(3-Pyridylalkyl)piperidylidene]benzocycloheptapyridine derivatives as dual antagonists of PAF and histamine” (J Med Chem, 1994).

Columns and labels:
Type in all cases: functional
Mus musculus [1] = assay: Tested for effect on central nervous system in mice at 100 mg/kg peroral dose for spontaneous motor activity (SMA) expressed as percentage relative to control; conditions: route oral
Oryctolagus cuniculus = species: Oryctolagus cuniculus; assay: Concentration required to inhibit PAF-induced maximum aggregation
Mus musculus [2] = assay: Antiallergic activity was evaluated using active anaphylactic test after po administration of 10 (mg/kg) in mice
Mus musculus [3] = species: Mus musculus; assay: Dose required to inhibit PAF-induced mortality; conditions: read-out: ID50 (the source's name)
Rattus norvegicus [4] = assay: Intravenous dose required to reduce the lowering of the arterial blood pressure caused by PAF; conditions: for ED50: Rattus norvegicus, Arterial blood, iv, read-out: ID50 (the source's name)
Mus musculus [5] = assay: Antiallergic activity was evaluated using active anaphylactic test after po administration in mice; conditions: read-out: ID50 (the source's name)
Rattus norvegicus [6] = assay: Tested at 10 (mg/kg) intravenous dose for percent inhibition of the arterial blood pressure in normotensive rats caused by histamine
Cavia porcellus [7] = species: Cavia porcellus; assay: Tested for concentration required to inhibit H1 histamine -induced guinea pig ileum contraction
Mus musculus [8] = assay: Antiallergic activity was evaluated using active anaphylactic test after po administration of 30 (mg/kg) in mice
Rattus norvegicus [9] = assay: Tested at 30 (mg/kg) dose for percent inhibition required to inhibit mortality in sensitized animals by histamine
Mus musculus [10] = species: Mus musculus; assay: Tested for dose required to inhibit endotoxin induced mortality in mice; conditions: read-out: ID50 (the source's name)
Rattus norvegicus [11] = species: Rattus norvegicus; assay: Tested for dose required to inhibit endotoxin induced mortality in rats; conditions: read-out: ID50 (the source's name)
Mus musculus [12] = assay: Tested for effect on central nervous system in mice at 100 mg/kg peroral dose barbiturate-sleeping time (BST); conditions: route oral
Rattus norvegicus [13] = species: Rattus norvegicus; assay: Tested for dose required to inhibit antigen induced increased permeability; conditions: read-out: ID50 (the source's name)
Cavia porcellus [14] = species: Cavia porcellus; assay: Tested for concentration required to inhibit histamine -induced ileum contraction
Rattus norvegicus [15] = assay: Tested at 10 (mg/kg) intravenous dose for percent inhibition required to reduce the lowering of the arterial blood pressure caused by histamine

| SMILES | IC50 (Oryctolagus cuniculus) | ED50 (Mus musculus [3]) | ED50 (Rattus norvegicus [4]) | ED50 (Mus musculus [5]) | IC50 (Cavia porcellus [7]) | further results |
| --- | --- | --- | --- | --- | --- | --- |
| CN1C(=O)CN=C(c2ccccc2)c2cc(Cl)ccc21 [DIAZEPAM] |  |  |  |  |  | Relative to control (Mus musculus [1]): 54% |
| O=C(c1cccnc1O)N1CCC(=C2c3ccc(Cl)cc3CCc3cccnc32)CC1 | > 100 µM | > 30 mg/kg |  |  |  | Inhibition (Mus musculus [2]): 56% |
| COc1ncccc1CN1CCC(=C2c3ccc(Cl)cc3CCc3cccnc32)CC1 | 6 µM |  | > 5 mg/kg | 17 mg/kg |  |  |
| Cc1ccc(CN2CCC(=C3c4ccc(Cl)cc4CCc4cccnc43)CC2)cn1.Cl | 9 µM |  |  | 12 mg/kg | 37 nM | Inhibition (Rattus norvegicus [6]): 96.4% |
| Clc1ccc2c(c1)CCc1cccnc1C2=C1CCN(Cc2cccnc2)CC1 | 4 µM |  |  | 6.7 mg/kg | 93 nM | Inhibition (Rattus norvegicus [6]): 83.6% |
| Cc1cncc(C(=O)N2CCC(=C3c4ccc(Cl)cc4CCc4cccnc43)CC2)c1 | 3.1 µM |  | > 5 mg/kg | 12 mg/kg | 350 nM |  |
| COc1ccc(CN2CCC(=C3c4ccc(Cl)cc4CCc4cccnc43)CC2)cn1 | 37 µM | < 30 mg/kg |  | 5.9 mg/kg | 380 nM |  |
| Cc1ncccc1CN1CCC(=C2c3ccc(Cl)cc3CCc3cccnc32)CC1 | 13 µM |  |  |  | 270 nM | Inhibition (Mus musculus [8]): 50% |
| COC(=O)c1cncc(CN2CCC(=C3c4ccc(Cl)cc4CCc4cccnc43)CC2)c1.Cl | > 100 µM |  | > 5 mg/kg |  | 190 nM |  |
| [O-][n+]1cccc(CN2CCC(=C3c4ccc(Cl)cc4CCc4cccnc43)CC2)c1 | 14 µM | > 30 mg/kg | > 5 mg/kg |  |  | Inhibition (Rattus norvegicus [9]): 56% |
| COC(=O)c1ccncc1C(=O)N1CCC(=C2c3ccc(Cl)cc3CCc3cccnc32)CC1 | 17 µM | > 30 mg/kg | > 5 mg/kg | 11 mg/kg |  |  |
| CSc1ncccc1C(=O)N1CCC(=C2c3ccc(Cl)cc3CCc3cccnc32)CC1 | 20 µM | > 30 mg/kg | > 5 mg/kg |  |  | Inhibition (Mus musculus [2]): 50% |
| CCOC(=O)N1CCC(=C2c3ccc(Cl)cc3CCc3cccnc32)CC1 [LORATADINE] |  |  |  | 19 mg/kg |  | ED50 (Mus musculus [10]): > 10 mg/kg; ED50 (Rattus norvegicus [11]): > 5 mg/kg; Relative to control (Mus musculus [1]): 106%; X (Mus musculus [12]): 320 min; Inhibition (Rattus norvegicus [6]): 66.3%; ED50 (Rattus norvegicus [13]): 2.4 mg/kg |
| COc1ccc(C(=O)N2CCC(=C3c4ccc(Cl)cc4CCc4cccnc43)CC2)cn1 | > 100 µM | 30 mg/kg |  | 5.5 mg/kg | 34 nM | ID50 (Rattus norvegicus [4]): > 5 mg/kg |
| O=C(c1ccc(Cl)nc1)N1CCC(=C2c3ccc(Cl)cc3CCc3cccnc32)CC1 | > 100 µM | 20 mg/kg | > 1 mg/kg | 1.9 mg/kg |  | IC50 (Cavia porcellus [14]): 64 nM |
| Clc1ccc2c(c1)CCc1cccnc1C2=C1CCN(Cc2cccnc2Cl)CC1 | > 100 µM |  |  | 4.5 mg/kg |  | IC50 (Cavia porcellus [14]): 350 nM |

| SMILES | IC50 (Oryctolagus cuniculus) | ED50 (Mus musculus [3]) | ED50 (Rattus norvegicus [4]) | ED50 (Mus musculus [5]) | IC50 (Cavia porcellus [7]) | further results |
| --- | --- | --- | --- | --- | --- | --- |
| O=C(c1ccc(O)nc1)N1CCC(=C2c3ccc(Cl)cc3CCc3cccnc32)CC1 | 1.5 µM | > 3 mg/kg | 1.5 mg/kg | > 30 mg/kg | 390 nM | Inhibition (Rattus norvegicus [6]): 67% |
| Cc1cncc(CN2CCC(=C3c4ccc(Cl)cc4CCc4cccnc43)CC2)c1 [RUPATADINE] | 3.7 µM |  |  | 13 mg/kg |  | ED50 (Mus musculus [10]): 1.2 mg/kg; ED50 (Rattus norvegicus [11]): 0.5 mg/kg; Relative to control (Mus musculus [1]): 97%; X (Mus musculus [12]): 138 min; Inhibition (Rattus norvegicus [6]): 89%; ED50 (Rattus norvegicus [13]): 1.2 mg/kg |
| CC(c1cccnc1)N1CCC(=C2c3ccc(Cl)cc3CCc3cccnc32)CC1.Cl (centres undefined) | 8.2 µM | > 30 mg/kg | > 5 mg/kg | > 30 mg/kg |  |  |
| Clc1ccc2c(c1)CCc1cccnc1C2=C1CCN(Cc2ccncc2)CC1 | 1.8 µM |  |  | 6.1 mg/kg | 94 nM | Inhibition (Rattus norvegicus [6]): 85.1% |
| O=C(c1cccnc1Cl)N1CCC(=C2c3ccc(Cl)cc3CCc3cccnc32)CC1 | > 100 µM |  |  | > 30 mg/kg |  | IC50 (Cavia porcellus [14]): 130 nM |
| O=C(c1cc[n+]([O-])cc1)N1CCC(=C2c3ccc(Cl)cc3CCc3cccnc32)CC1 | 0.22 µM |  |  | 12 mg/kg |  | IC50 (Cavia porcellus [14]): 210 nM; Inhibition (Rattus norvegicus [15]): 46.2% |
| Cc1ccncc1CN1CCC(=C2c3ccc(Cl)cc3CCc3cccnc32)CC1 | 15 µM | 10 mg/kg |  |  | 35 nM | Inhibition (Mus musculus [8]): 56% |
| CN(C)CCOC(c1ccccc1)c1ccccc1 [DIPHENHYDRAMINE] |  |  |  |  |  | ED50 (Mus musculus [10]): > 10 mg/kg; ED50 (Rattus norvegicus [11]): > 5 mg/kg |
| O=C(O)c1cncc(CN2CCC(=C3c4ccc(Cl)cc4CCc4cccnc43)CC2)c1 | 85 µM | > 30 mg/kg | > 5 mg/kg | 6.5 mg/kg | 350 nM |  |
| CC(C)(C)c1ccc(C(O)CCCN2CCC(C(O)(c3ccccc3)c3ccccc3)CC2)cc1 (centres undefined) [TERFENADINE] |  |  |  |  |  | Relative to control (Mus musculus [1]): 90%; X (Mus musculus [12]): 133 min |
| CC(=O)N1CCC(=C2c3ccc(Cl)cc3CCc3cccnc32)CC1 [SCH-37370] | 0.84 µM |  |  | 19 mg/kg | 100 nM | ED50 (Mus musculus [10]): > 10 mg/kg; ED50 (Rattus norvegicus [11]): > 5 mg/kg; X (Mus musculus [12]): 296 min; Inhibition (Rattus norvegicus [6]): 55.1%; ED50 (Rattus norvegicus [13]): 10 mg/kg |
| Clc1ccc2c(c1)CCc1cccnc1C2=C1CCN(Cc2cncc(Br)c2)CC1 | 0.72 µM | 10 mg/kg |  | 17 mg/kg | 280 nM | Inhibition (Rattus norvegicus [6]): 61.9% |
| Clc1ccc2c(c1)CCc1cccnc1C2=C1CCN(Cc2ccc(Cl)nc2)CC1 | > 100 µM | 20 mg/kg |  | 6.9 mg/kg |  |  |
| Cl.Clc1ccc2c(c1)CCc1cccnc1C2=C1CCN(CCc2cccnc2)CC1 | 34 µM | > 30 mg/kg | > 5 mg/kg | > 30 mg/kg | 360 nM | Inhibition (Rattus norvegicus [6]): 95.4% |
| O=C(c1cncc(Br)c1)N1CCC(=C2c3ccc(Cl)cc3CCc3cccnc32)CC1 | 3.4 µM | > 30 mg/kg | > 5 mg/kg | > 30 mg/kg |  |  |
